Test results from patent US8895558B2, “Arylpiperazine-containing pyrrole 3-carboxamide derivatives for treating depressive disorders” (Green Cross Corporation, priority 2008, dated 2014).
Structures can show the parent of a compound that is named as a salt.

Key:
[1] = target: T1, human recombinant serotonin 5-HT2A receptor (Homo sapiens, UniProt P28223); test: Binding affinity for serotonin 5-HT2A receptor ([3H]Ketanserin); conditions: CHO-K1 expressed receptor, 1 nM [3H]Ketanserin
T1 construct: purchased PerkinElmer Life and Analytical Sciences, USA; host or cells: CHO-K1
T1 sequence (P28223 whole entry): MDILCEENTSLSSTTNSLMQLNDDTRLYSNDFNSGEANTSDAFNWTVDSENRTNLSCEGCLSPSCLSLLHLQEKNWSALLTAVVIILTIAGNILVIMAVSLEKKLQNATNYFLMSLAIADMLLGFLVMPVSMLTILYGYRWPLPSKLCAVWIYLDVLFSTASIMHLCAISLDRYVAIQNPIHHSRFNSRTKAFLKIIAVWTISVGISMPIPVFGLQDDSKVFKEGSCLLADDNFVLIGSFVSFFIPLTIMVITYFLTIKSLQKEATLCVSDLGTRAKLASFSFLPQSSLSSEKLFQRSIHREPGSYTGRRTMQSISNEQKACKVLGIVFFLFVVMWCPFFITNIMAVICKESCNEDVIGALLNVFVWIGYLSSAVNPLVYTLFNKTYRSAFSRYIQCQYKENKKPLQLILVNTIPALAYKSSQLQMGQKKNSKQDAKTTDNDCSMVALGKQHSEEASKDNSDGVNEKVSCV
Description: Receptor binding affinities of the compounds for serotonin receptors were measured by the method described in the literature [Park W K et al., Pharmacol Biochem Behav. 2005, 82(2), 361-372].
For serotonin 5-HT2A binding, an aliquot of human recombinant serotonin 5-HT2A receptor (PerkinElmer Life and Analytical Sciences, USA) expressed in CHO-K1 cells (5 ug/well) and 1 nM [^3H]Ketanserin (PerkinElmer) were used in the presence of mianserin (20 uM) as nonspecific. The reaction mixture was incubated for 60 min at 27 using 50 mM Tris-HCl (pH 7.4) buffer containing 4 mM CaCl2 and 0.1% ascorbic acid, and harvested through filtermate A glass fiber filter (Wallac, Finland) presoaked in 0.5% polyethyleneimine (PEI) by microbeta filtermate-96 harvester (PerkinElmer) to terminate the reaction, and then washed with ice cold 50 mM Tris-HCl buffer solution (pH 7.4). The filter was then covered with MeltiLex, sealed in a sample bag, dried in an oven. The radioactivity retained in the filter was finally counted using MicroBeta Plus (Wallac).
(§1) The binding affinity (IC50) of a compound for the receptor was calculated by computerized nonlinear regression analysis (GraphPad Prism Program, San Diego, USA) using 7-8 varied concentrations of the compound run in duplicate tubes.

[2] = target: T2, human recombinant 5-HT2C receptor (Homo sapiens, UniProt P28335); test: Binding affinity for serotonin 5-HT2C receptor ([3H]Mesulergine); conditions: CHO-K1 membranes, 1.3 nM [3H]Mesulergine
T2 construct: purchased PerkinElmer
T2 sequence (P28335 33-458): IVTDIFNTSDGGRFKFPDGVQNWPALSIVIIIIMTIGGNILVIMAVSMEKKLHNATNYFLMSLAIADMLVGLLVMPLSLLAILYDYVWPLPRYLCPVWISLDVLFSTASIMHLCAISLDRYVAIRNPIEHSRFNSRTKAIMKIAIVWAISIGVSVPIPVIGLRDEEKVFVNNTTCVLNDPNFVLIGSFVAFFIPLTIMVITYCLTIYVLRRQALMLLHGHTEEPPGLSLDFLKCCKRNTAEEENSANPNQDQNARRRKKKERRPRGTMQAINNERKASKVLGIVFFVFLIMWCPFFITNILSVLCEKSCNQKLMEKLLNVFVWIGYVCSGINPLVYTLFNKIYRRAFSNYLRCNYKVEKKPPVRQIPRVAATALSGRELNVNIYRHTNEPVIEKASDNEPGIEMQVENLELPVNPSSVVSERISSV
Description: Receptor binding affinities of the compounds for serotonin receptors were measured by the method described in the literature [Park W K et al., Pharmacol Biochem Behav.
as §1
Nonspecific binding was determined using 100 uM mianserin. The incubations were performed for 60 min at 27, and these were terminated by rapid filtration through filtermate. A glass fiber filter presoaked in 0.5% PEI.

[3] = target: T3, human serotonin transporter (Homo sapiens, UniProt P31645); test: Binding affinity for serotonin transporter ([3H]Imipramine); conditions: HEK-293 membranes, 2 nM [3H]Imipramine
T3 construct: purchased PerkinElmer; host or cells: HEK-293
T3 sequence (P31645 whole entry): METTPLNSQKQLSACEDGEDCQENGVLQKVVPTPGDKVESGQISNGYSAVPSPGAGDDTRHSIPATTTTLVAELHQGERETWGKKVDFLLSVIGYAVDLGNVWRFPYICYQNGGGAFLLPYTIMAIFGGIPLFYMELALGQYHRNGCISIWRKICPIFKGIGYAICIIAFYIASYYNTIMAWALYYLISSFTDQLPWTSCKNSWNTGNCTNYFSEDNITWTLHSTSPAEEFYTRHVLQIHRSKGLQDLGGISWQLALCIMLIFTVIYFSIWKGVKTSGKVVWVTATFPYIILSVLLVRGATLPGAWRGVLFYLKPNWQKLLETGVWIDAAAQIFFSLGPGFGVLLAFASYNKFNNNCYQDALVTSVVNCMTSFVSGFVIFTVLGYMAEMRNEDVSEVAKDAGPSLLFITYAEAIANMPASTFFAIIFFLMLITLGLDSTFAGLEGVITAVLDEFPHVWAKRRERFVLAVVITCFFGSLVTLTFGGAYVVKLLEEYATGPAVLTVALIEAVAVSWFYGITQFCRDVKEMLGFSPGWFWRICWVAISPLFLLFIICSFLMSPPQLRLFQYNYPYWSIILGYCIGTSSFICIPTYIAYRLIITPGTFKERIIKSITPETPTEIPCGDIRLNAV
Description: For serotonin transporter binding assays, a reaction mixture with a final volume of 0.25 ml was prepared by mixing a test compound, human serotonin transporter membrane expressed in HEK-293 cells (PerkinElmer, 5 ug/well), [^3H]Imipramine (PerkinElmer, 2 nM) and 50 mM Tris-HCl (pH 7.4) buffer containing 120 mM NaCl and 5 mM KCl. The reaction mixture was incubated for 30 min at 27, and harvested through filtermate. A glass fiber filter presoaked in 0.5% PEI with ice cold 50 mM Tris-HCl buffer (pH 7.4) containing 0.9% NaCl.

| Compound | IC50 [1] [nM] | IC50 [2] [nM] | IC50 [3] [nM] |
| --- | --- | --- | --- |
| Cc1cccc(N2CCN(CCCNC(=O)c3cc(-c4ccccc4)n(CC4CCCCC4)c3C)CC2)c1C [Example 21, 1-(Cyclohexylmethyl)-N-(3-(4-(2,3-dimethylphenyl)piperazin-1-yl)propyl)-2-methyl-5-phenyl-1H-pyrrole-3-carboxamide] | 1230 | 638 | 352 |
| Cc1c(C(=O)NCCCN2CCN(c3cccc(Cl)c3Cl)CC2)cc(-c2ccccc2)n1CC1CCCCC1 [Example 22, 1-(cyclohexylmethyl)-N-(3-(4-(2,3-dichlorophenyl)piperazin-1-yl)propyl)-2-methyl-5-phenyl-1H-pyrrole-3-carboxamide] | 4380 | 1030 | 412 |
| Cc1[nH]c(-c2ccccc2)cc1C(=O)NCCCN1CCN(c2cccc(Cl)c2)CC1 [Example 23, N-(3-(4-(3-chlorophenyl)piperazin-1-yl)propyl)-2-methyl-5-phenyl-1H-pyrrole-3-carboxamide] | 245 | 280 | 92 |
| Cc1cccc(N2CCN(CCCNC(=O)c3cc(-c4ccccc4)[nH]c3C)CC2)c1C [Example 24, N-(3-(4-(2,3-dimethylphenyl)piperazin-1-yl)propyl)-2-methyl-5-phenyl-1H-pyrrole-3-carboxamide] | 300 | 615 | 77 |
| Cc1[nH]c(-c2ccccc2)cc1C(=O)NCCCN1CCN(c2cccc(Cl)c2Cl)CC1 [Example 25, N-(3-(4-(2,3-dichlorophenyl)piperazin-1-yl)propyl)-2-methyl-5-phenyl-1H-pyrrole-3-carboxamide] | 300 | 599 | 133 |
| Cc1cccc(N2CCN(CCCNC(=O)c3cc(-c4ccccc4)n(CC(C)C)c3C)CC2)c1C [Example 27, N-(3-(4-(2,3-dimethylphenyl)piperazin-1-yl)propyl)-1-isobutyl-2-methyl-5-phenyl-1H-pyrrole-3-carboxamide] | 897 | 1300 | 350 |
| Cc1c(C(=O)NCCCN2CCN(c3cccc(Cl)c3Cl)CC2)cc(-c2ccccc2)n1CC(C)C [Example 28, N-(3-(4-(2,3-dichlorophenyl)piperazin-1-yl)propyl)-1-isobutyl-2-methyl-5-phenyl-1H-pyrrole-3-carboxamide] | 406 | 342 | 381 |
| CCCn1c(-c2ccccc2)cc(C(=O)N(C)CCCN2CCN(c3cccc(Cl)c3Cl)CC2)c1C [Example 31, N-(3-(4-(2,3-dichlorophenyl)piperazin-1-yl)propyl)-N,2-dimethyl-5-phenyl-1-propyl-1H-pyrrole-3-carboxamide hydrochloride] | 33.2 | 20.7 | 102 |
| CCCn1c(-c2ccccc2)cc(C(=O)NCCCCN2CCN(c3cccc(C)c3C)CC2)c1C [Example 33, N-(4-(4-(2,3-dimethylphenyl)piperazin-1-yl)butyl)-2-methyl-5-phenyl-1-propyl-1H-pyrrole-3-carboxamide hydrochloride] | 792 | 149 | 76 |
| CCCn1c(-c2ccccc2)cc(C(=O)NCCCCN2CCN(c3cccc(Cl)c3Cl)CC2)c1C [Example 34, N-(4-(4-(2,3-dichlorophenyl)piperazin-1-yl)butyl)-2-methyl-5-phenyl-1-propyl-1H-pyrrole-3-carboxamide hydrochloride] | 104 | 20.9 | 76 |
| Cc1cccc(N2CCN(CCCCNC(=O)c3cc(-c4ccccc4)n(C)c3C)CC2)c1C [Example 35, N-(4-(4-(2,3-dimethylphenyl)piperazin-1-yl)butyl)-1,2-dimethyl-5-phenyl-1H-pyrrole-3-carboxamide hydrochloride] | 61 | 61 | 149 |
| Cc1c(C(=O)NCCCCN2CCN(c3cccc(Cl)c3Cl)CC2)cc(-c2ccccc2)n1C [Example 36, N-(4-(4-(2,3-dichlorophenyl)piperazin-1-yl)butyl)-1,2-dimethyl-5-phenyl-1H-pyrrole-3-carboxamide hydrochloride] | 28 | 32 | 93 |
| Cc1c(C(=O)N(C)CCCN2CCN(c3cccc(Cl)c3Cl)CC2)cc(-c2ccccc2)n1C [Example 37, N-(3-(4-(2,3-dichlorophenyl)piperazin-1-yl)propyl)-N,1,2-trimethyl-5-phenyl-1H-pyrrole-3-carboxamide hydrochloride] | 38.8 | 34.5 | 98 |
| Cc1[nH]c(-c2ccccc2)cc1C(=O)NCCN1CCN(c2cccc(Cl)c2Cl)CC1 [Example 38, N-(2-(4-(2,3-dichlorophenyl)piperazin-1-yl)ethyl)-2-methyl-5-phenyl-1H-pyrrole-3-carboxamide hydrochloride] | 40 | 37 | 87 |
| CCCn1c(-c2ccccc2)cc(C(=O)NCCN2CCN(c3cccc(Cl)c3Cl)CC2)c1C [Example 39, N-(2-(4-(2,3-dichlorophenyl)piperazin-1-yl)ethyl)-2-methyl-5-phenyl-1-propyl-1H-pyrrole-3-carboxamide hydrochloride] | 408 | 310 | 32 |
| Cc1cccc(N2CCN(CCCCNC(=O)c3cc(-c4ccccc4)[nH]c3C)CC2)c1C [Example 40, N-(4-(4-(2,3-dimethylphenyl)piperazin-1-yl)butyl)-2-methyl-5-phenyl-1H-pyrrole-3-carboxamide hydrochloride] | 10 | 63 | 21 |
| Cc1[nH]c(-c2ccccc2)cc1C(=O)NCCCCN1CCN(c2cccc(Cl)c2Cl)CC1 [Example 41, N-(4-(4-(2,3-dichlorophenyl)piperazin-1-yl)butyl)-2-methyl-5-phenyl-1H-pyrrole-3-carboxamide hydrochloride] | 13 | 14 | 21 |
| CCn1c(-c2ccccc2)cc(C(=O)NCCCCN2CCN(c3cccc(C)c3C)CC2)c1C [Example 42, N-(4-(4-(2,3-dimethylphenyl)piperazin-1-yl)butyl)-1-ethyl-2-methyl-5-phenyl-1H-pyrrole-3-carboxamide hydrochloride] | 10 | 17 | 65 |
| CCn1c(-c2ccccc2)cc(C(=O)NCCCCN2CCN(c3cccc(Cl)c3Cl)CC2)c1C [Example 43, N-(4-(4-(2,3-dichlorophenyl)piperazin-1-yl)butyl)-1-ethyl-2-methyl-5-phenyl-1H-pyrrole-3-carboxamide hydrochloride] | 28 | 28 | 64 |
| Cc1cccc(N2CCN(CCCNC(=O)c3cc(-c4ccc(Cl)cc4)[nH]c3C)CC2)c1C [Example 44, 5-(4-chlorophenyl)-N-(3-(4-(2,3-dimethylphenyl)piperazin-1-yl)propyl)-2-methyl-1H-pyrrole-3-carboxamide hydrochloride] | 92 | 189 | 19 |
| Cc1[nH]c(-c2ccc(Cl)cc2)cc1C(=O)NCCCN1CCN(c2cccc(Cl)c2Cl)CC1 [Example 45, 5-(4-chlorophenyl)-N-(3-(4-(2,3-dichlorophenyl)piperazin-1-yl)propyl)-2-methyl-1H-pyrrole-3-carboxamide hydrochloride] | 105 | 106 | 56 |
